# Data published in patent US20240352418A1, “METHOD FOR PRODUCING MULTINUCLEATED MEGAKARYOCYTE WITH ENHANCED PLATELET PRODUCTION CAPABILITY, METHOD FOR PRODUCING PLATELETS, METHOD FOR PRODUCING PLATELET PREPARATION, AND METHOD FOR PRODUCING BLOOD PREPARATION” (Megakaryon Corporation, priority 2021, published 2024).
# Assays:
# [1] = tested on: multinucleated megakaryocytes induced from immortalized megakaryocyte cell line (MKCL); assay: Size and expansion of multinucleated megakaryocytes after BSA fractionation (FSC, phase-contrast microscope); type: cell-based, human; settings: F1 fraction, phase-contrast images, FIG. 4; AZ191 1 μmol/L and blebbistatin 10 μmol/L added together to GNF351 + Y-39983 (1B vs 1A); harmine 5 μmol/L added on top (Example 1 vs 1B)
# From the text: Multinucleation was induced by culturing the immortalized megakaryocyte cell line obtained in Example 1(1) in the same manner as in Example 1(2). The obtained multinucleated megakaryocytes were fractionated according to the size of multinucleated megakaryocytes using bovine serum albumin. Specifically, a three-way stopcock was attached to a 50-ml injection syringe with a plunger removed, and the syringe was fixed with a clamp with a leading end of the tube facing downward. A 30% (w/v) albumin solution (derived from bovine serum, fatty acid free, Fujifilm Wako Pure Chemical Corporation #017-22231) was diluted with 1×HBSS (ThermoFisher #14175095) to prepare 2%, 4%, and 16% BSA solutions, and 16% (10 ml), 4% (4 ml), 2% (4 ml), and 0% (2 ml) solutions were layered in the above syringe in the stated order. A cell suspension containing 75×10^5 multinucleated megakaryocyte cells prepared using 2 ml of HBSS was then applied and allowed to stand for 50 minutes, so that the cells were settled under natural gravity. Then, the three-way stopcock was loosened, and the cells were collected by dropping droplets thereof. As a result, the cell population containing the multinucleated megakaryocytes was fractionated into fractions 1 to 4 (F1 to F4). Regarding the multinucleated megakaryocytes of each fraction, the number of sets of chromosomes (N) was analyzed in the same manner as in Example 1(3) above (Example 1). […]
# After the fractionation, platelets were produced from multinucleated megakaryocytes by culturing the multinucleated megakaryocytes in the production culture medium excluding DOX. […] After the culturing, regarding the cell suspension containing platelets, the amount of platelets produced per megakaryocyte was calculated in the same manner as in Example 1(4).
# [2] = tested on: immortalized megakaryocyte cell line (MKCL); assay: Degree of multinucleation (number of sets of chromosomes, PI staining, flow cytometer); type: cell-based, human; settings: cultured 3 days with DOX; FIG. 1; harmine alone 10 μmol/L in growth medium (control 2); Example 1 = multinucleation culture medium; vs control 1 (growth medium)
# Method: Next, multinucleation of immortalized megakaryocytes was induced by culturing, in a culture medium to which an AhR inhibitor, a ROCK inhibitor, a DYRK inhibitor, a myosin 2 inhibitor, and harmine were added in addition to DOX. Specifically, the immortalized megakaryocyte cell line obtained in Example 1(1) was suspended in a multinucleation culture medium below, to 3.0×10^5 cells/ml. Then, the cells were seeded on a 6-well dish at 2 mL/well, or on a 125-mL Erlenmeyer Flask at 25 mL/flask, and cultured while being shaken at 100 rpm for 3 days. The culture conditions were set to 37° C. and 5% CO2. […]
# The cell suspension obtained after the culturing was collected, and the number of sets of chromosomes in the cell suspension and the size of the cells were measured using a flow cytometer. […] As for the obtained results, the number of sets of chromosomes (N) contained in megakaryocytes and the size of the cells was analyzed based on FSC and PI staining intensity (Example 1). […]
# The nuclear phases of the multinucleated megakaryocytes obtained using the method for producing multinucleated megakaryocytes according to the present invention were examined. […] As for the obtained results, the number of sets of chromosomes (N) contained in megakaryocytes and the size of the cells was analyzed based on FSC and PI staining intensity. […]
SMILES,expansion of multinucleated megakaryocytes [1],degree of multinucleation (nuclear phases detected) [2]
"COc1cc(N2CCN(C)CC2)ccc1Nc1nccc(-c2cn(C)c3cnccc23)n1 [AZ191, N-[2-methoxy-4-(4-methyl-1-piperazinyl)phenyl]-4-(1-methyl-1H-pyrrolo [2,3-c]pyridin-3-yl)-2-pyrimidinamine]",facilitated expansion of multinucleated megakaryocytes,
"Cc1ccc2c(c1)C(=O)C1(O)CCN(c3ccccc3)C1=N2 (stereo not shown) [blebbistatin, 3a-hydroxy-6-methyl-1-phenyl-2,3-dihydropyrrolo[2,3-b]quinolin-4-one]",facilitated expansion of multinucleated megakaryocytes,
"COc1ccc2c(c1)[nH]c1c(C)nccc12 [harmine, 7-methoxy-1-methyl-9H-pyrido[3,4-b]indole]",no effect,32N multinucleated megakaryocytes were slightly detected
